Numbers after ± are expanded uncertainties.
Columns and labels:
[1] = Liquid; for mass density: 101.3 kPa, Vibrating tube method; for vapor or sublimation pressure: Ebulliometric method (Recirculating still)
[2] = refractive index (Na D-line) (dimensionless); details: 298.15 K; 101.33 kPa; Liquid; Standard Abbe refractometry
[3] = xn = mol fraction of the nth substance listed; details: 101 kPa, Liquid, Vibrating tube method, x2 = 0

CCCC(=O)OCC [ethyl butanoate]
[1]
Details	mass density [kg/m3]	vapor or sublimation pressure [kPa]
288.15 K	884.01 ± 0.23	–
298.15 K	873.5 ± 0.24	–
308.15 K	862.85 ± 0.24	–
318.15 K	852.26 ± 0.24	–
328.15 K	841.55 ± 0.24	–
377.33 K	–	60 ± 0.08
378.63 K	–	62.5 ± 0.09
379.81 K	–	65 ± 0.09
380.99 K	–	67.5 ± 0.09
382.1 K	–	70 ± 0.09
383.23 K	–	72.5 ± 0.1
384.31 K	–	75 ± 0.1
385.34 K	–	77.5 ± 0.1
386.35 K	–	80 ± 0.1
387.34 K	–	82.5 ± 0.11
388.31 K	–	85 ± 0.11
389.25 K	–	87.5 ± 0.11
390.17 K	–	90 ± 0.11
391.06 K	–	92.5 ± 0.12
391.94 K	–	95 ± 0.12
392.81 K	–	97.5 ± 0.12
393.66 K	–	100 ± 0.12
394.26 K	–	101.32 ± 0.12
394.31 K	–	101.32 ± 0.51
395.43 K	–	105 ± 0.13
397.05 K	–	110 ± 0.13
398.57 K	–	115 ± 0.14
400.1 K	–	120 ± 0.14
401.54 K	–	125 ± 0.15
402.99 K	–	130 ± 0.15
404.34 K	–	135 ± 0.16
405.62 K	–	140 ± 0.17
406.96 K	–	145 ± 0.17
408.22 K	–	150 ± 0.18
409.45 K	–	155 ± 0.18
410.61 K	–	160 ± 0.19
411.77 K	–	165 ± 0.19
412.95 K	–	170 ± 0.2
414.05 K	–	175 ± 0.21
415.01 K	–	180 ± 0.21
416.08 K	–	185 ± 0.21
417.14 K	–	190 ± 0.22
418.15 K	–	195 ± 0.22
419.14 K	–	200 ± 0.23
420.12 K	–	205 ± 0.23
421.1 K	–	210 ± 0.24
422.01 K	–	215 ± 0.25
422.94 K	–	220 ± 0.25
423.85 K	–	225 ± 0.25
424.79 K	–	230 ± 0.26
425.67 K	–	235 ± 0.27
426.53 K	–	240 ± 0.27
427.35 K	–	245 ± 0.28
428.2 K	–	250 ± 0.28
429.04 K	–	255 ± 0.29
429.84 K	–	260 ± 0.29
430.65 K	–	265 ± 0.3
431.42 K	–	270 ± 0.3
432.23 K	–	275 ± 0.31
433 K	–	280 ± 0.31

Details	refractive index
[2]	1.3898 ± 0.0005

CCCCCCC [heptane]
[1]
Details	mass density [kg/m3]	vapor or sublimation pressure [kPa]
288.15 K	688.16 ± 0.25	–
298.15 K	679.62 ± 0.25	–
308.15 K	670.96 ± 0.25	–
318.15 K	662.33 ± 0.25	–
328.15 K	653.61 ± 0.25	–
346.23 K	–	45 ± 0.07
347.76 K	–	47.5 ± 0.07
349.29 K	–	50 ± 0.07
350.7 K	–	52.5 ± 0.08
352.07 K	–	55 ± 0.08
353.41 K	–	57.5 ± 0.08
354.69 K	–	60 ± 0.08
355.94 K	–	62.5 ± 0.09
357.14 K	–	65 ± 0.09
358.32 K	–	67.5 ± 0.09
359.45 K	–	70 ± 0.09
360.54 K	–	72.5 ± 0.1
361.61 K	–	75 ± 0.1
362.66 K	–	77.5 ± 0.1
363.68 K	–	80 ± 0.1
364.71 K	–	82.5 ± 0.11
365.65 K	–	85 ± 0.11
366.61 K	–	87.5 ± 0.11
367.53 K	–	90 ± 0.11
368.42 K	–	92.5 ± 0.12
369.32 K	–	95 ± 0.12
370.19 K	–	97.5 ± 0.12
371.07 K	–	100 ± 0.12
371.38 K	–	101.32 ± 0.46
371.51 K	–	101.32 ± 0.13
372.72 K	–	105 ± 0.13
374.31 K	–	110 ± 0.13
375.85 K	–	115 ± 0.14
377.34 K	–	120 ± 0.14
378.77 K	–	125 ± 0.15
380.18 K	–	130 ± 0.16
381.52 K	–	135 ± 0.16
382.84 K	–	140 ± 0.17
384.13 K	–	145 ± 0.17
385.36 K	–	150 ± 0.18
386.6 K	–	155 ± 0.18
387.78 K	–	160 ± 0.19
388.94 K	–	165 ± 0.19
390.08 K	–	170 ± 0.2
391.17 K	–	175 ± 0.2
392.25 K	–	180 ± 0.21
393.3 K	–	185 ± 0.21
394.34 K	–	190 ± 0.22
395.37 K	–	195 ± 0.22
396.37 K	–	200 ± 0.23
397.35 K	–	205 ± 0.23
398.29 K	–	210 ± 0.24
399.24 K	–	215 ± 0.24
400.17 K	–	220 ± 0.25
401.07 K	–	225 ± 0.26
401.97 K	–	230 ± 0.26
402.84 K	–	235 ± 0.27
403.72 K	–	240 ± 0.27
404.57 K	–	245 ± 0.28
405.42 K	–	250 ± 0.28
406.25 K	–	255 ± 0.29
407.05 K	–	260 ± 0.29
407.87 K	–	265 ± 0.3
408.65 K	–	270 ± 0.3
409.42 K	–	275 ± 0.31
410.22 K	–	280 ± 0.31

Details	refractive index
[2]	1.3853 ± 0.0005

CCCCCCC [heptane] + CCCC(=O)OC
[3]
Details	mass density [kg/m3]
288.15 K	688.16 ± 0.25
298.15 K	679.62 ± 0.25
308.15 K	670.96 ± 0.25
318.15 K	662.33 ± 0.25
328.15 K	653.61 ± 0.25

CCCCCCC [heptane] + CCCC(=O)OCC
[3]
Details	mass density [kg/m3]
288.15 K	688.16 ± 0.25
298.15 K	679.62 ± 0.25
308.15 K	670.96 ± 0.25
318.15 K	662.33 ± 0.25
328.15 K	653.61 ± 0.25

CCCC(=O)OC [methyl butanoate]
[1]
Details	mass density [kg/m3]	vapor or sublimation pressure [kPa]
288.15 K	903.31 ± 0.23	–
298.15 K	892.31 ± 0.23	–
308.15 K	881.19 ± 0.24	–
318.15 K	870.06 ± 0.24	–
328.15 K	858.8 ± 0.24	–
354.1 K	–	50 ± 0.07
355.47 K	–	52.5 ± 0.08
356.79 K	–	55 ± 0.08
358.1 K	–	57.5 ± 0.08
359.34 K	–	60 ± 0.08
360.56 K	–	62.5 ± 0.09
361.72 K	–	65 ± 0.09
362.84 K	–	67.5 ± 0.09
363.94 K	–	70 ± 0.09
364.99 K	–	72.5 ± 0.1
366.05 K	–	75 ± 0.1
367.04 K	–	77.5 ± 0.1
368.03 K	–	80 ± 0.1
369 K	–	82.5 ± 0.11
370.01 K	–	85 ± 0.11
370.93 K	–	87.5 ± 0.11
371.84 K	–	90 ± 0.11
372.72 K	–	92.5 ± 0.12
373.58 K	–	95 ± 0.12
374.42 K	–	97.5 ± 0.12
375.27 K	–	100 ± 0.12
375.74 K	–	101.32 ± 0.13
376.91 K	–	105 ± 0.13
378.42 K	–	110 ± 0.14
379.91 K	–	115 ± 0.14
381.34 K	–	120 ± 0.15
382.73 K	–	125 ± 0.15
384.07 K	–	130 ± 0.16
385.37 K	–	135 ± 0.16
386.63 K	–	140 ± 0.17
387.87 K	–	145 ± 0.17
389.07 K	–	150 ± 0.18
390.24 K	–	155 ± 0.18
391.38 K	–	160 ± 0.19
392.48 K	–	165 ± 0.19
393.58 K	–	170 ± 0.2
394.64 K	–	175 ± 0.2
395.67 K	–	180 ± 0.21
396.7 K	–	185 ± 0.21
397.68 K	–	190 ± 0.22
398.67 K	–	195 ± 0.23
399.61 K	–	200 ± 0.23
400.54 K	–	205 ± 0.24
401.46 K	–	210 ± 0.24
402.37 K	–	215 ± 0.25
403.25 K	–	220 ± 0.25
404.13 K	–	225 ± 0.26
404.97 K	–	230 ± 0.26
405.81 K	–	235 ± 0.27
406.64 K	–	240 ± 0.27
407.45 K	–	245 ± 0.28
408.26 K	–	250 ± 0.28
409.05 K	–	255 ± 0.29
409.83 K	–	260 ± 0.29
410.58 K	–	265 ± 0.3
411.35 K	–	270 ± 0.3
412.09 K	–	275 ± 0.31
412.83 K	–	280 ± 0.31

Details	refractive index
[2]	1.3851 ± 0.0005

CCCCCCCCC [nonane]
[1]
Details	mass density [kg/m3]	vapor or sublimation pressure [kPa]
288.15 K	721.65 ± 0.24	–
298.15 K	713.85 ± 0.25	–
308.15 K	705.96 ± 0.25	–
318.15 K	698.06 ± 0.25	–
328.15 K	690.17 ± 0.25	–
395.53 K	–	45 ± 0.07
397.25 K	–	47.5 ± 0.07
398.89 K	–	50 ± 0.07
400.5 K	–	52.5 ± 0.07
402.04 K	–	55 ± 0.08
403.51 K	–	57.5 ± 0.08
404.94 K	–	60 ± 0.08
406.33 K	–	62.5 ± 0.08
407.66 K	–	65 ± 0.09
408.95 K	–	67.5 ± 0.09
410.24 K	–	70 ± 0.09
411.45 K	–	72.5 ± 0.09
412.64 K	–	75 ± 0.1
413.81 K	–	77.5 ± 0.1
414.94 K	–	80 ± 0.1
416.07 K	–	82.5 ± 0.1
417.16 K	–	85 ± 0.11
418.22 K	–	87.5 ± 0.11
419.24 K	–	90 ± 0.11
420.25 K	–	92.5 ± 0.11
421.24 K	–	95 ± 0.12
422.22 K	–	97.5 ± 0.12
423.18 K	–	100 ± 0.12
423.87 K	–	101.32 ± 0.12
423.9 K	–	101.32 ± 0.46
425.1 K	–	105 ± 0.13
426.76 K	–	110 ± 0.13
428.48 K	–	115 ± 0.14
430.15 K	–	120 ± 0.14
431.71 K	–	125 ± 0.15
433.28 K	–	130 ± 0.15
434.77 K	–	135 ± 0.16
436.25 K	–	140 ± 0.16
437.64 K	–	145 ± 0.17
439.03 K	–	150 ± 0.17
440.38 K	–	155 ± 0.18
441.68 K	–	160 ± 0.18
442.99 K	–	165 ± 0.19
444.25 K	–	170 ± 0.19
445.46 K	–	175 ± 0.2
446.65 K	–	180 ± 0.2
447.83 K	–	185 ± 0.21
448.99 K	–	190 ± 0.21
450.12 K	–	195 ± 0.22
451.2 K	–	200 ± 0.22
452.29 K	–	205 ± 0.23
453.35 K	–	210 ± 0.23
454.41 K	–	215 ± 0.24
455.44 K	–	220 ± 0.25
456.45 K	–	225 ± 0.25
457.45 K	–	230 ± 0.26
458.43 K	–	235 ± 0.26
459.41 K	–	240 ± 0.27
460.35 K	–	245 ± 0.27
461.28 K	–	250 ± 0.28
462.19 K	–	255 ± 0.28
463.08 K	–	260 ± 0.29
463.95 K	–	265 ± 0.29
464.86 K	–	270 ± 0.3
465.73 K	–	275 ± 0.3
466.59 K	–	280 ± 0.31

Details	refractive index
[2]	1.4032 ± 0.0005

CCCCCCCCC [nonane] + CCCC(=O)OC
[3]
Details	mass density [kg/m3]
288.15 K	721.65 ± 0.24
298.15 K	713.85 ± 0.25
308.15 K	705.96 ± 0.25
318.15 K	698.06 ± 0.25
328.15 K	690.17 ± 0.25

CCCCCCCCC [nonane] + CCCC(=O)OCC
[3]
Details	mass density [kg/m3]
288.15 K	721.65 ± 0.24
298.15 K	713.85 ± 0.25
308.15 K	705.96 ± 0.25
318.15 K	698.06 ± 0.25
328.15 K	690.17 ± 0.25
